# Experimental data from ChEMBL document CHEMBL1201862, “PubChem BioAssay data set” (2004).
#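 48-hour exposure; five concentrations; linearly interpolated endpoints. GI50 marks 50% less growth.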 The source made the active and inactive calls. Cut-off read from the data, not from the text of the source: active = GI50 up to about 1.1 µM and inactive = higher.
# Assays:
# Test in all cases: NCI-60 cell line screen, 48 h
# SK-OV-3 = test system: SK-OV-3
# HOP-62 = test system: HOP-62
# OVCAR-3 = test system: OVCAR-3
# SF-539 = test system: SF-539
# RXF 393 = test system: RXF 393
# U-251 = test system: U-251
# UO-31 = test system: UO-31
# NCI-H460 = test system: NCI-H460
# A549 = test system: A549
# DMS-273 = test system: DMS-273
# SN12C = test system: SN12C
# NCI-H522 = test system: NCI-H522
# M14 = test system: M14
# RPMI-8226 = test system: RPMI-8226
# HOP-92 = test system: HOP-92
# KM12 = test system: KM12
# HL-60 = test system: HL-60
Compound,GI50 (SK-OV-3),GI50 (HOP-62),GI50 (OVCAR-3),GI50 (SF-539),GI50 (RXF 393),GI50 (U-251),GI50 (UO-31),GI50 (NCI-H460),GI50 (A549),GI50 (DMS-273),GI50 (SN12C),GI50 (NCI-H522),GI50 (M14),GI50 (RPMI-8226),GI50 (HOP-92),GI50 (KM12),GI50 (HL-60)
O=C(O)CCC(NC(=O)c1ccccc1)C(=O)O (stereo unspecified),> 100 µM (inactive),> 100 µM (inactive),> 100 µM (inactive),> 100 µM (inactive),> 100 µM (inactive),> 100 µM (inactive),> 100 µM (inactive),> 100 µM (inactive),> 100 µM (inactive),> 100 µM (inactive),> 100 µM (inactive),> 100 µM (inactive),> 100 µM (inactive),> 100 µM (inactive),> 100 µM (inactive),> 100 µM (inactive),
COc1ccc(C23c4ccc(OC)cc4CC2(c2ccc([N+](=O)[O-])cc2)Cc2cc(OC)ccc23)cc1 (stereo unspecified),> 28.2 µM (inactive),> 14.1 µM (inactive),> 39.2 µM (inactive),> 14.2 µM (inactive),,> 50.1 µM (inactive),> 24.3 µM (inactive),> 89.1 µM (inactive),> 21.2 µM (inactive),> 62.2 µM (inactive),> 50.6 µM (inactive),> 59.8 µM (inactive),> 46.2 µM (inactive),> 27.4 µM (inactive),> 21.9 µM (inactive),> 35.8 µM (inactive),> 55 µM (inactive)
COC(=O)C(CC1=C(O)Nc2ccccc2N1)/C(=N/NC(N)=O)C(=O)Nc1ccccc1C (stereo unspecified),> 100 µM (inactive),> 100 µM (inactive),> 100 µM (inactive),> 100 µM (inactive),38.5 µM (inactive),> 100 µM (inactive),> 100 µM (inactive),28.8 µM (inactive),> 100 µM (inactive),17 µM (inactive),> 100 µM (inactive),16.8 µM (inactive),> 100 µM (inactive),21 µM (inactive),44 µM (inactive),> 100 µM (inactive),> 100 µM (inactive)
Cn1c2cccc3nnc4cccc(c4c32)n1C,,,> 100 µM (inactive),> 100 µM (inactive),> 100 µM (inactive),> 100 µM (inactive),> 100 µM (inactive),> 100 µM (inactive),> 100 µM (inactive),> 100 µM (inactive),> 100 µM (inactive),,> 100 µM (inactive),> 100 µM (inactive),> 100 µM (inactive),> 100 µM (inactive),> 100 µM (inactive)
CC(=O)Oc1cc(OC(C)=O)c2cc3c(cc2c1OC(C)=O)C(=O)C1(CCCC1)C3=O,17.6 µM (inactive),21.4 µM (inactive),19.3 µM (inactive),,17.2 µM (inactive),18.1 µM (inactive),16.3 µM (inactive),17.5 µM (inactive),19.1 µM (inactive),18.2 µM (inactive),17.7 µM (inactive),,17.7 µM (inactive),2.29 µM (inactive),15.1 µM (inactive),,20.8 µM (inactive)
COc1ccc(N2C(=O)C(N3C(=O)C=CC3=O)C2C=O)cc1 (stereo unspecified),> 100 µM (inactive),> 100 µM (inactive),> 100 µM (inactive),> 100 µM (inactive),,> 100 µM (inactive),> 100 µM (inactive),> 100 µM (inactive),> 100 µM (inactive),> 100 µM (inactive),> 100 µM (inactive),> 100 µM (inactive),> 100 µM (inactive),> 100 µM (inactive),> 100 µM (inactive),> 100 µM (inactive),> 100 µM (inactive)
CN(C)CCC(/C=C/c1ccccc1)=N\Nc1ccccc1,3.56 µM (inactive),2.59 µM (inactive),2.33 µM (inactive),1.82 µM (inactive),5.83 µM (inactive),1.83 µM (inactive),1.4 µM (inactive),1.41 µM (inactive),1.73 µM (inactive),0.571 µM (active),2.74 µM (inactive),1.84 µM (inactive),2.72 µM (inactive),0.853 µM (active),,0.847 µM (active),0.564 µM (active)
O=c1c2ccc3cccc4c(=O)cc(c5ccccc15)-c2c34,> 100 µM (inactive),> 100 µM (inactive),28.2 µM (inactive),,> 100 µM (inactive),45.4 µM (inactive),> 100 µM (inactive),> 100 µM (inactive),> 100 µM (inactive),> 100 µM (inactive),> 100 µM (inactive),76.9 µM (inactive),> 100 µM (inactive),,,> 100 µM (inactive),43.9 µM (inactive)
Cc1ccc(C)c(N2C/C(=N\NC(=O)CC#N)C(c3nc4ccccc4s3)C(=O)C2=O)c1 (stereo unspecified),> 100 µM (inactive),> 100 µM (inactive),> 100 µM (inactive),,> 100 µM (inactive),> 100 µM (inactive),> 100 µM (inactive),> 100 µM (inactive),> 100 µM (inactive),> 100 µM (inactive),> 100 µM (inactive),> 100 µM (inactive),> 100 µM (inactive),,> 100 µM (inactive),> 100 µM (inactive),> 100 µM (inactive)
CCN(CC)CC(=O)N1CCc2c([nH]c3ccccc23)C1c1cccnc1 (stereo unspecified),> 100 µM (inactive),> 100 µM (inactive),> 100 µM (inactive),> 100 µM (inactive),,> 100 µM (inactive),26.9 µM (inactive),> 100 µM (inactive),> 100 µM (inactive),> 100 µM (inactive),> 100 µM (inactive),> 100 µM (inactive),> 100 µM (inactive),71.8 µM (inactive),31.4 µM (inactive),> 100 µM (inactive),> 100 µM (inactive)
COc1nc(NC2OC(COC(C)=O)C(OC(C)=O)C(OC(C)=O)C2OC(C)=O)c2c(OC(C)=O)cc(=O)oc2n1 (stereo unspecified),> 100 µM (inactive),> 100 µM (inactive),> 100 µM (inactive),> 100 µM (inactive),> 100 µM (inactive),> 100 µM (inactive),> 100 µM (inactive),13.8 µM (inactive),> 100 µM (inactive),> 100 µM (inactive),> 100 µM (inactive),,> 100 µM (inactive),> 100 µM (inactive),> 100 µM (inactive),> 100 µM (inactive),> 100 µM (inactive)
CC/C(C)=C1\CCC(CN2CCOCC2)C1=O (stereo unspecified),,23.1 µM (inactive),15 µM (inactive),20.2 µM (inactive),6.78 µM (inactive),,21.6 µM (inactive),17.8 µM (inactive),21.2 µM (inactive),18.1 µM (inactive),8.69 µM (inactive),,17.3 µM (inactive),2.21 µM (inactive),14.6 µM (inactive),24.3 µM (inactive),15.1 µM (inactive)
NC(=O)N/N=C/C(=C/Nc1ccccc1)[N+](=O)[O-],> 100 µM (inactive),> 100 µM (inactive),> 100 µM (inactive),,> 100 µM (inactive),> 100 µM (inactive),> 100 µM (inactive),89.1 µM (inactive),> 100 µM (inactive),> 100 µM (inactive),> 100 µM (inactive),> 100 µM (inactive),> 100 µM (inactive),> 100 µM (inactive),79.3 µM (inactive),,> 100 µM (inactive)
CN/C=C(\C(=O)c1ccc(OC)c(OC)c1)c1ccc(OC)cc1,45.9 µM (inactive),24.7 µM (inactive),,1.25 µM (inactive),14 µM (inactive),9.29 µM (inactive),12.2 µM (inactive),19.2 µM (inactive),34.6 µM (inactive),7.33 µM (inactive),15.3 µM (inactive),17 µM (inactive),18.7 µM (inactive),3.52 µM (inactive),,12.6 µM (inactive),11.3 µM (inactive)
Cc1cccc(C)c1NC(=O)C1=NC(=S)NC(c2ccccc2)C1c1nc2ccccc2s1 (stereo unspecified),> 100 µM (inactive),,> 100 µM (inactive),> 100 µM (inactive),> 100 µM (inactive),> 100 µM (inactive),> 100 µM (inactive),> 100 µM (inactive),> 100 µM (inactive),> 100 µM (inactive),> 100 µM (inactive),> 100 µM (inactive),> 100 µM (inactive),,> 100 µM (inactive),> 100 µM (inactive),> 100 µM (inactive)
C[C@@H](CC(O)C1OC1(C)C)[C@@H]1CC[C@]2(C)C3=CCC4C(C)(C)C(O)CC[C@]4(C)C3CCC12C (stereo partly specified),19.8 µM (inactive),42.8 µM (inactive),34.7 µM (inactive),17.9 µM (inactive),16.7 µM (inactive),30.5 µM (inactive),18.6 µM (inactive),17.3 µM (inactive),12.7 µM (inactive),13.3 µM (inactive),42.2 µM (inactive),11.8 µM (inactive),13.9 µM (inactive),10.3 µM (inactive),17.9 µM (inactive),22.9 µM (inactive),4.14 µM (inactive)
CC(=O)Oc1ccccc1 [ACETIC ACID PHENYL ESTER],,> 100 µM (inactive),> 100 µM (inactive),> 100 µM (inactive),> 100 µM (inactive),> 100 µM (inactive),> 100 µM (inactive),> 100 µM (inactive),> 100 µM (inactive),> 100 µM (inactive),> 100 µM (inactive),> 100 µM (inactive),> 100 µM (inactive),> 100 µM (inactive),,> 100 µM (inactive),> 100 µM (inactive)
